Here are results for 38 compounds from patent US12011444B2, “N-substituted indole derivatives as PGE2 receptor modulators” (Idorsia Pharmaceuticals Ltd, priority 2015, dated 2024).

Assay [1] deals with EP4 (Homo sapiens (Human), UniProt P35408). Description: hEP4 cAMP assay (BT549 breast cancer cells, HTRF cAMP). The class given is cell-based. To be noted: antagonistic activity; mean values where measured multiple times. As for the experimental part: Plate is pre-incubated 45 minutes at room temperature. Subsequently, 2.5 microliters of PGE2 (final conc. 6 nM) are transferred into the assay plate. Plate is incubated 30 minutes at room temperature.
Chain of EP4 (P35408 whole entry): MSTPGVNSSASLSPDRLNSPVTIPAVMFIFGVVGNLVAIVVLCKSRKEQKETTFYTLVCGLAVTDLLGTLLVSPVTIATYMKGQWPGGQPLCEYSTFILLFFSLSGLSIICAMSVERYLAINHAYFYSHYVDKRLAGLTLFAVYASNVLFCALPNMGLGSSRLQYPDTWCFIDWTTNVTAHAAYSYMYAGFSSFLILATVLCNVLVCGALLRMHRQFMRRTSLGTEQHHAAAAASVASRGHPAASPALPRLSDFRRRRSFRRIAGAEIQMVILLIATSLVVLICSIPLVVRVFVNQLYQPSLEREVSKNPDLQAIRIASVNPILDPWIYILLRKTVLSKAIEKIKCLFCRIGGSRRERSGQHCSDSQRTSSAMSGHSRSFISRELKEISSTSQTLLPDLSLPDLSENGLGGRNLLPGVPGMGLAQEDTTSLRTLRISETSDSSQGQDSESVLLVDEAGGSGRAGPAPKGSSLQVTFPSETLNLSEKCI
On the technique in general: cAMP levels reflect the balance of adenylyl cyclase and phosphodiesterase activity.

The target in assay [2] is EP2 (Homo sapiens (Human), UniProt P43116).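 Also: antagonism of PGE2-stimulated cAMP accumulation in SF295 human glioblastoma cells with endogenous EP2, cAMP read by HTRF, expressed relative to DMSO control.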
Chain of EP2 (P43116 whole entry): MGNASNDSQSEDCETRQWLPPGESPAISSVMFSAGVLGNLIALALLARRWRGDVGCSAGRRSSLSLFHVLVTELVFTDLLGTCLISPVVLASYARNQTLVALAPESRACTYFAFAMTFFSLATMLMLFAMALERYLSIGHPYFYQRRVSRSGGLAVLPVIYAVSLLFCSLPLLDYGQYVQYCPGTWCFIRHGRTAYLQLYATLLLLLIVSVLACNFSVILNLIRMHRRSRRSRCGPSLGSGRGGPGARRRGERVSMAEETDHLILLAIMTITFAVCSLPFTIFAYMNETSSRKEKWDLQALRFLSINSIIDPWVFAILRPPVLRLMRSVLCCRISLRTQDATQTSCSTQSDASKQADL
Text: Human tumor cell lines expressing endogenously either EP4 or EP2 are used and cAMP accumulation in cells upon PGE2 stimulation is monitored. SF295 glioblastoma cells express high endogenous EP2 and no EP4, whereas BT549 breast cancer cells, express high endogenous EP4 levels and very low EP2 levels.
As a detection method for cAMP the HTRF (homogeneous time resolved fluorescence) Cisbio kit (HTRF cAMP dynamic 2 kit 20′000 tests Cisbio Cat. #62AM4PEC) was used, which is based on a competitive immunoassay using a Cryptate-labeled anti-cAMP antibody and d2-labeled cAMP. Native cAMP produced by cells or unlabeled cAMP (for the standard curve) compete with exogenously added d2-labeled cAMP (acceptor) for binding to monoclonal anti-cAMP-Eu3+Cryptate (donor). A FRET signal (Fluorescence Resonance Energy Transfer) is obtained only if the labeled anti-cAMP antibody binds the d2 labelled cAMP, thus the specific signal (i.e. energy transfer) is inversely proportional to the concentration of cAMP in the standard or sample.
The SF295 cells (NCI/No. 0503170) are detached from culture dishes with a cell dissociation buffer (Invitrogen, 13151-014), and collected in growing medium (GM: RPM11640 (Invitrogen 21875)/10% FCS, 1% Penicilin/streptomycin). Cells are counted washed and resuspended in assay buffer (AB; HBSS, 20 mM HEPES, 0.2% BSA; 2 mM IBMX). 4,000 cells in 5 μl of AB are seeded per well of a small volume 384 well plate (black with flat bottom, Greiner 784076).
PGE2 (Cayman 14010, stock solution: 75 μM in DMSO) is used as agonist at 75 nM final concentration, corresponding to EC80.
Two point five microliters of diluted compounds are transferred into the assay plate. Plate is pre-incubated 45 minutes at room temperature. Subsequently, 2.5 microliters of PGE2 (final conc. 75 nM) are transferred into the assay plate. Plate is incubated 30 minutes at room temperature. Five μl of each donor (anti-cAMP cryptate) and acceptor (cAMP-d2) are added and the plate is incubated another hour at room temperature in the dark and then read using a BMG LABTECH PHERAstar reader (Excitation: 337 nm, Emission: 620 and 665 nm).
The obtained Delta F (fluorescence) values (665 nm/620 nM) are converted into % cAMP values using the measurements of the cAMP calibrator provided in the kit. For each compound concentration the percentage of cAMP compared to DMSO control value as average±STDEV (each concentration is measured in duplicate) is calculated.
IC50 values and curves are generated with XLfit software (IDBS) using Dose-Response One Site model 203. When compounds were measured multiple times, mean values are given.

On to `COc1ccc(F)c2c1cc(C)n2CCNc1cc(-c2ccc(C(=O)O)c(OC3CCCC3)c2)ncn1` [compound 595, 2-Cyclopentyloxy-4-{6-[2-(7-fluoro-4-methoxy-2-methyl-indol-1-yl)-ethylamino]-pyrimidin-4-yl}-benzoic acid], for which the IC50 – broadly, the point on the concentration scale where inhibition reaches its midpoint – worked out at 0.073 µM in assay [1] and 0.01 µM in assay [2].
In the same order, the values of `COc1ccc(F)c2c1cc(C)n2CCNc1cc(-c2ccc(-c3onc(C)c3C(=O)O)cc2)ncn1` [compound 596] are 0.222 µM and 0.01 µM.
As to `CCOc1cc(-c2cc(NCCn3c(C)cc4c(OC)ccc(F)c43)ncn2)ccc1CNC1CCC1` [compound 597], the 50% inhibitory concentration (IC50) amounted to 0.719 µM in assay [1] and 0.175 µM in assay [2].
`COc1cccc2c1cc(C)n2CCNc1cc(-c2ccc(C(=O)O)c(OC(F)F)c2)ncn1` [compound 598]: the half-maximal inhibitory concentration (IC50) is 0.336 µM in assay [1] and 0.002 µM in assay [2].
In the same order, the values of `CCOc1cc(-c2cc(NCCn3c(C)cc4c(OC)cccc43)ncn2)cc(Cl)c1C(=O)O` [compound 599] are 0.196 µM and 0.013 µM.
In the same order, the values of `Cc1cc(F)cc2c1cc(C)n2CCNc1cc(-c2ccc(C(=O)O)c(OC(F)F)c2)ncn1` [compound 600] are 0.319 µM and 0.014 µM.
On to `Cc1ccc(F)c2c1cc(C)n2CCNc1cc(-c2ccc(C(=O)O)c(OC(F)F)c2)ncn1` [compound 601], for which the values for the IC50 in assay [1] and in assay [2] were 0.122 µM and 0.012 µM, respectively.
For `CCS(=O)(=O)Nc1cc(-c2cc(NCCn3c(C)cc4c(C)ccc(F)c43)ncn2)ccc1C(=O)O` [compound 602], in that order: 0.805 µM and 0.163 µM.
In the same order, the values of `COc1cc(F)cc2c1cc(C#N)n2CCNc1cc(-c2ccc(C(=O)O)c(CC(C)C)c2)ncn1` [compound 603] are 0.015 µM and 0.041 µM.
In the same order, the values of `COc1cc(F)cc2c1cc(C)n2CCNc1cc(-c2ccc(C(=O)O)c(OC(F)(F)F)c2)ncn1` [compound 604] are 0.325 µM and 0.016 µM.
Regarding `COc1ccc(Cl)c2c1cc(C)n2CCNc1cc(-c2ccc(C(=O)O)c(OC(F)(F)F)c2)ncn1` [compound 605], the IC50 in assay [1] is 0.829 µM; in assay [2], 0.048 µM.
In the same order, the values of `COc1ccc(F)c2c1cc(C)n2CCNc1cc(-c2ccc(C(=O)O)c(OC(F)(F)F)c2)ncn1` [compound 606] are 0.186 µM and 0.008 µM.
For `CCCOc1cc(-c2cc(NCCn3c(C)cc4c(OC)cc(F)cc43)ncn2)cc(Cl)c1C(=O)O` [compound 607], in that order: 0.111 µM and 0.025 µM.
For `CCCOc1cc(-c2cc(NCCn3c(C)cc4c(OC)cc(F)cc43)ncn2)cc(F)c1C(=O)O` [compound 608], the half-maximal inhibitory concentration (IC50) turned out to be 0.126 µM in assay [1] and 0.024 µM in assay [2].
For the compound `CCCOc1cc(-c2cc(NCCn3c(C)cc4c(OC)ccc(F)c43)ncn2)cc(Cl)c1C(=O)O` [compound 609], the concentration for half-maximal inhibition (IC50) in assay [1] came to 0.042 µM; in assay [2] it was 0.01 µM.
For `CCCOc1cc(-c2cc(NCCn3c(C)cc4c(OC)ccc(F)c43)ncn2)cc(F)c1C(=O)O` [compound 610], in that order: 0.139 µM and 0.022 µM.
For `CCCCOc1cc(-c2cc(NCCn3c(C)cc4c(OC)cc(F)cc43)ncn2)ccc1C(=O)O` [compound 611], in that order: 0.056 µM and 0.004 µM.
For `COc1cc(F)cc2c1cc(C)n2CCNc1cc(-c2ccc(C(=O)O)c(OCC(C)C)c2)ncn1` [compound 612], the half-maximal inhibitory concentration (IC50) in assay [1] worked out at 0.079 µM; in assay [2], 0.008 µM.
For `CCCCOc1cc(-c2cc(NCCn3c(C)cc4c(OC)ccc(Cl)c43)ncn2)ccc1C(=O)O` [compound 613], in that order: 0.221 µM and 0.004 µM.
In the same order, the values of `COc1ccc(Cl)c2c1cc(C)n2CCNc1cc(-c2ccc(C(=O)O)c(OCC(C)C)c2)ncn1` [compound 614] are 0.193 µM and 0.012 µM.
Consider `CCCCOc1cc(-c2cc(NCCn3c(C)cc4c(OC)ccc(F)c43)ncn2)ccc1C(=O)O` [compound 615], for which the IC50 in assay [1] is 0.039 µM; in assay [2], 0.002 µM.
For the compound `COc1ccc(F)c2c1cc(C)n2CCNc1cc(-c2ccc(C(=O)O)c(OCC(C)C)c2)ncn1` [compound 616], the half-maximal inhibitory concentration (IC50) in assay [1] came to 0.085 µM; in assay [2], 0.005 µM.
In the same order, the values of `CCOc1cc(-c2cc(NCCn3c(C)cc4c(OC)ccc(Cl)c43)ncn2)cc(CC)c1C(=O)O` [compound 617] are 0.952 µM and 0.06 µM.
For `CCOc1cc(-c2cc(NCCn3c(C)cc4c(OC)ccc(F)c43)ncn2)cc(CC)c1C(=O)O` [compound 618], in that order: 0.395 µM and 0.024 µM.
As for `CCCc1cc(-c2cc(NCCn3c(C)cc4c(OC)ccc(F)c43)ncn2)cc(OC)c1C(=O)O` [compound 619], the IC50 worked out at 0.249 µM in assay [1] and 0.009 µM in assay [2].
In the case of `CCCOc1cc(-c2cc(NCCn3c(C)cc4c(F)cc(F)c(F)c43)ncn2)cc(Cl)c1C(=O)O` [compound 620], the IC50 stood at 0.561 µM in assay [1] and 0.006 µM in assay [2].
In the same order, the values of `COc1cc(F)c(F)c2c1cc(C)n2CCNc1cc(-c2ccc(C(=O)O)c(CC(C)C)c2)ncn1` [compound 621] are 0.057 µM and 0.034 µM.
In the same order, the values of `COc1c(Cl)cc(F)c2c1cc(C)n2CCNc1cc(-c2ccc(C(=O)O)c(CC(C)C)c2)ncn1` [compound 622] are 0.303 µM and 0.732 µM.
As for `COc1cc(F)cc2c1cc(C)n2CCNc1cc(-c2ccc(C(=O)O)c(CC(C)C)c2)nc(C)n1` [compound 623], the 50% inhibitory concentration (IC50) was 0.13 µM in assay [1] and 0.045 µM in assay [2].
For `CCCc1cc(-c2cc(NCCn3c(C)cc4c(C)ccc(F)c43)ncn2)cc(OCC)c1C(=O)O` [compound 624], in that order: 0.501 µM and 0.048 µM.
In the same order, the values of `COc1ccc(F)c2c1cc(C)n2CCNc1cc(-c2ccc(C(=O)O)c(CC(C)C)c2)nc(C)n1` [compound 625] are 0.07 µM and 0.016 µM.
For `CCOc1cc(-c2cc(NCCn3c(C)cc4c(C)cc(F)cc43)nc(C(F)(F)F)n2)sc1C(=O)O` [compound 626], in that order: 0.356 µM and 0.051 µM.
In the case of `CCCOc1cc(-c2cc(NCCn3c(C)cc4c(C)cc(F)c(F)c43)ncn2)cc(F)c1C(=O)O` [compound 627], the half-inhibitory concentration (IC50) came out at 0.197 µM in assay [1] and 0.048 µM in assay [2].
For `CCCOc1cc(-c2cc(NCCn3c(C)cc4c(C)cc(F)c(F)c43)ncn2)cc(Cl)c1C(=O)O` [compound 628], in that order: 0.254 µM and 0.089 µM.
Consider `CCCOc1cc(-c2cc(NCCn3c(C)cc4c(C)c(F)cc(F)c43)ncn2)cc(Cl)c1C(=O)O` [compound 629], for which the figures for the IC50 in assay [1] and in assay [2] were 0.098 µM and 0.026 µM, respectively.
In the same order, the values of `COc1cc(F)cc2c1cc(C)n2CCNc1cc(-c2ccc(C(=O)O)c(OC(F)F)c2)ncn1` [compound 630] are 0.142 µM and 0.006 µM.
As for `COc1ccc(Cl)c2c1cc(C)n2CCNc1cc(-c2ccc(C(=O)O)c(OC(F)F)c2)ncn1` [compound 631], the IC50 was determined as 0.32 µM in assay [1] and 0.014 µM in assay [2].
Consider `CCCc1cc(-c2cc(NCCn3c(C)cc4c(OC)ccc(Cl)c43)ncn2)cc(OCC)c1C(=O)O` [compound 633], for which the values for the concentration for half-maximal inhibition (IC50) in assay [1] and in assay [2] were 0.75 µM and 0.06 µM, respectively.
